The text below walks through data of ChEMBL document CHEMBL1201862, “PubChem BioAssay data set” (2004).

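Cells were grown in 96-well plates and exposed to each compound for 48 hours at five concentrations; endpoints were interpolated linearly between bracketing concentrations, or set to the highest concentration if not reached. GI50: concentration for 50% inhibition of growth.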 The source made the active and inactive calls. Cut-off read from the data, not from the text of the source: active = GI50 up to about 1.1 µM and inactive = higher. Non-standard residues stand in square brackets, D forms with d. Residues, ends and D or L forms follow the SMILES beside them. *: point of attachment. Cbz = O=C(OCc1ccccc1)*; Boc = CC(C)(C)OC(=O)*; Aib = CC(C)(N)C(=O)O; OBn = c1ccc(CO*)cc1; OtBu = CC(C)(C)O*; βAla = NCCC(=O)O

Some test systems named below: BT-549; DMS-273; SNB-78; HOP-18; DMS-114; DLD-1; XF498; KM-20L2; RXF 631.
What all share (assay): inhibition of tumour cell growth, NCI panel, 48 h

In the case of `CS(=O)(=O)OCC1CN(S(C)(=O)=O)c2cc(O)ccc21` (stereo not given), the GI50 with BT-549 is 2.19 µM (inactive).

Consider `O=C(NNS(=O)(=O)c1ccccc1)c1cccnc1`, for which, in the experiment on BT-549, the GI50 is > 100 µM (inactive).

For `COc1cc(NCCC(=O)O)c2ncccc2c1`, the GI50 in the experiment on BT-549 was > 100 µM (inactive).

As to `O=C(O)c1oc(C(=O)O)c(C(=O)O)c1C(=O)O`, the GI50 in the experiment on BT-549 was > 100 µM (inactive).

On to `O=C1NC(=S)NC(=O)C1C(c1ccccc1[N+](=O)[O-])C1C(=O)NC(=S)NC1=O.c1ccncc1`, for which the GI50 in the experiment on BT-549 is > 100 µM (inactive).

With `COC(=O)C1(Cc2ccc3c(c2)CCC3)Cc2cc3c(cc2C1=O)CCC3` (stereo not given), the GI50 in the experiment on BT-549 was 7.96 µM (inactive).

As for `CC1=NN2C(=N)/C(=C/c3ccc(F)cc3)C(=O)N=C2S1`, the GI50 in the experiment with BT-549 is > 100 µM (inactive).

Consider `COc1ccc(-c2c(C#N)c(O)n(C3OC(CO)C(O)C(O)C3O)c(=S)c2C#N)cc1` (stereo not given), for which the GI50 with BT-549 is > 100 µM (inactive).

As for `COC(=O)[C@@H](NS(=O)(=O)CC12CCC(CC1)C2(C)C)C(C)(C)C`, the GI50 in the experiment on BT-549 is > 100 µM (inactive).

`[N-]=[N+]=Nc1cc(=O)n(-c2ccccc2)c(=O)n1-c1ccccc1`: the GI50 in the experiment with BT-549 is > 100 µM (inactive).

`Cc1cc(C)c2c(c1)CC1(Cc3c(ccc(C)c3C)C1=O)C2=O` (stereo not given): the GI50 in the experiment on BT-549 was > 100 µM (inactive).

Turning to `O=[N+]([O-])c1cccnc1NCC1(CO)CC(Cc2ccccc2)C1` (stereo not given), in the experiment with BT-549, the GI50 is > 100 µM (inactive).

On to `C1CN2N3CCCC23C1` (stereo not given), for which the GI50 in the experiment with DMS-273, in the experiment on SNB-78, with HOP-18, with DMS-114, with DLD-1 and in the experiment on XF498 was > 100 µM (inactive) throughout. Besides, in the experiment with KM-20L2, the GI50 is > 100 µM (inactive).

`O=C(CC(C(=O)c1cccs1)c1ccc2c(c1)OCO2)c1ccccc1` (stereo not given): in the experiment with BT-549, the GI50 was > 100 µM (inactive).

For `O=C1N=NC(=O)N1c1cc(C(F)(F)F)cc(C(F)(F)F)c1`, the GI50 in the experiment on BT-549 was 3.61 µM (inactive).

Take `CN(C)CC(/C(Cc1ccccc1)=N\NC(=O)c1ccncc1)c1ccccc1` (stereo not given): the GI50 with RXF 631 was 40.7 µM (inactive); in the experiment with DMS-114, 22.5 µM (inactive); in the experiment on DLD-1, 49.1 µM (inactive); in the experiment on XF498 it was 29.4 µM (inactive); in the experiment on KM-20L2, 27 µM (inactive).

As to `COc1ccc(C(=O)/C=C/c2cccnc2)cc1OC`, the GI50 in the experiment on BT-549 is 6.18 µM (inactive).

Regarding `C[C@]12CC/C(=N\O)C=C1CC[C@@H]1[C@@H]2CC[C@]2(C)C(=N/O)/C(=C/c3ccc([N+](=O)[O-])cc3)C[C@@H]12`, the GI50 in the experiment on BT-549 was 3.05 µM (inactive).

As for `COC(=O)[C@]12CC[C@H]3CC[C@H]([C@H]31)[C@H](c1ccccc1)N2`, the GI50 in the experiment on BT-549 was 18.4 µM (inactive).

Take `Cc1cc(-c2nc3ccccc3s2)ccc1NC(=O)[C@@H](N)CCCCN`: the GI50 with BT-549 was 10.1 µM (inactive).

On to `Clc1ccc2c(c1)CC1C[N+]3=C(CCCC3)C1=C2` (stereo not given), for which, in the experiment on BT-549, the GI50 is 55.5 µM (inactive).

Turning to `C=C[C@H]1CN2CCc3c([nH]c4c([C@@H]5CCCN5C)c(O)ccc34)[C@@H]2C[C@@H]1C[C@H]1c2[nH]c3ccccc3c2CCN1C`, in the experiment on BT-549, the GI50 is 1.47 µM (inactive).

For the compound `O=C(N[C@@H]1C=CCC[C@@H]1c1ccccc1)OCc1ccccc1`, the GI50 in the experiment with DMS-273 was 16.4 µM (inactive); with SNB-78, 32.5 µM (inactive); in the experiment with HOP-18, 19.2 µM (inactive); in the experiment with DMS-114 it was 21.7 µM (inactive); in the experiment with DLD-1 it was 23.7 µM (inactive); in the experiment with XF498, 19 µM (inactive). The GI50 in the experiment with KM-20L2 is 20 µM (inactive).

Take `CC(C)OP(=O)(CN(C)/C(F)=N\C(F)(F)F)OC(C)C`: the GI50 in the experiment with BT-549 is > 100 µM (inactive).

`CC1=C(C)C2(C#N)C(=O)N3C(=NC(c4ccco4)NC3c3ccco3)C2(C#N)C(c2ccco2)N1` (stereo not given): the GI50 with BT-549 was > 100 µM (inactive).

In the case of `CCOC(=O)N/N=C(/N)c1cccc(Br)c1`, in the experiment with BT-549, the GI50 was > 100 µM (inactive).

For the compound `Nc1ccc(C23CC4CC(C2)CC(c2ccc(N)cc2)(C4)C3)cc1`, the GI50 in the experiment with BT-549 was 42.9 µM (inactive).

As for `COc1ccc2c(c1)CCCN1Cc3ccccc3CC21` (stereo not given), the GI50 in the experiment with BT-549 is > 100 µM (inactive).

As to `Cc1ccc2nc3ccccc3c(C3C4C(=O)N(c5ccc(F)cc5)C(=O)C4ON3C(C(N)=O)c3ccccc3)c2c1` (stereo not given), the GI50 in the experiment on BT-549 was > 100 µM (inactive).

Turning to `CC1=NC(=Cc2cccc(Cl)c2)C(=O)N1n1c(-c2ccccc2)nc2ccccc2c1=O`, the GI50 with BT-549 is 34.7 µM (inactive).

In the case of `Cc1ccc2nc(NC(=O)C(=O)C(C#N)c3ccc(Cl)cc3)sc2c1` (stereo not given), the GI50 with DMS-273 is > 50 µM (inactive); with SNB-78 it was > 50 µM (inactive); with HOP-18, 0.265 µM (active); with DMS-114, > 50 µM (inactive); with XF498 it was > 50 µM (inactive); in the experiment with KM-20L2, > 50 µM (inactive).

Take `CCOC(=O)C(NC(=O)c1ccccc1)(Nc1ccc(Cl)cc1C(F)(F)F)C(F)(F)F` (stereo not given): in the experiment with BT-549, the GI50 was 6.37 µM (inactive).

For the compound `O=C(CC1=Nc2nnc(-c3nnc4n3C(=O)C(CC(=O)C3CC3)=N4)n2C1=O)C1CC1`, the GI50 in the experiment on DMS-273, in the experiment on SNB-78, with DMS-114, in the experiment with DLD-1 and with KM-20L2 was > 100 µM (inactive) throughout.

As to `CNc1nc(N)cc(O)n1`, the GI50 in the experiment on DMS-273, in the experiment on SNB-78, in the experiment on DMS-114, with DLD-1 and with KM-20L2 was > 100 µM (inactive) in each case.

Turning to `CC(C)Cc1ccc(C(C)/C=C2\CCC(CN(C)C)C2=O)cc1` (stereo not given), the GI50 in the experiment with SNB-78 was 17.5 µM (inactive); in the experiment on HOP-18, 17.6 µM (inactive); with BT-549, 17.1 µM (inactive); with DMS-114, 19.2 µM (inactive); in the experiment on DLD-1, 10.7 µM (inactive); in the experiment with XF498, 20 µM (inactive). Also, in the experiment with KM-20L2, the GI50 was 24.3 µM (inactive).

As to `NC(Cc1ccnnc1)C(=O)O` (stereo not given), the GI50 in the experiment with BT-549 is > 100 µM (inactive).

For `CCOc1cc2c(cc1O)CC[C@@H]1[C@@H]2CC[C@]2(C)C(N)CC[C@@H]12` (stereo not given in full), the GI50 with BT-549 was 11.2 µM (inactive).

For `O=C(CCc1ccccc1)On1nnc2ccccc2c1=O`, the GI50 in the experiment on DMS-273, in the experiment on SNB-78, in the experiment with DMS-114, in the experiment with DLD-1 and in the experiment on KM-20L2 was > 100 µM (inactive) in each case.

As to `C/C(=N\NS(=O)(=O)c1ccc(C)cc1)c1ccc[n+]([O-])n1`, the GI50 in the experiment with DMS-273 was > 100 µM (inactive); with HOP-18 it was > 100 µM (inactive); with DMS-114 it was > 100 µM (inactive); with DLD-1, 50.1 µM (inactive); in the experiment with XF498 it was > 100 µM (inactive); with KM-20L2 it was > 100 µM (inactive).

Turning to `C[C@@H](C[C@H]1OC(C)(C)O[C@@H]1C(C)(C)O)[C@H]1CC=C2[C@]3(C)[C@H](O)C[C@H]4C(C)(C)[C@H](O)CC[C@]4(C)[C@H]3CC[C@]21C`, the GI50 in the experiment on BT-549 was 11.4 µM (inactive).

For the compound `Nc1ncc(/C=N/O)c(NCC2(CO)CC(CCc3ccccc3)C2)n1` (stereo not given), the GI50 in the experiment on BT-549 was > 10 µM (inactive).

On to `COc1cc(C)cc(C(=O)/C=C/c2ccccc2)c1O`, for which the GI50 in the experiment on BT-549 was 17.4 µM (inactive).

With `CC1=NC(=O)C(C)(c2ccccc2)N1CCc1ccccc1` (stereo not given), in the experiment with BT-549, the GI50 is > 100 µM (inactive).

On to `O=C1C2c3[nH]c4ccccc4c3C3CCCC3C2C(=O)N1c1ccccc1` (stereo not given), for which the GI50 in the experiment with DMS-273 was > 100 µM (inactive); with SNB-78, > 100 µM (inactive); in the experiment on DMS-114, > 100 µM (inactive); with DLD-1 it was > 100 µM (inactive); in the experiment with XF498 it was 12 µM (inactive).

In the case of `O=[PH](O)c1ccccn1`, the GI50 with DMS-273, with SNB-78, in the experiment on DMS-114, in the experiment with DLD-1, with XF498 and in the experiment with KM-20L2 was > 100 µM (inactive) in each case.

For `CCOc1ccc(-c2oc(/C=N/NS(=O)(=O)c3ccc(C)cc3)c([N+](=O)[O-])c2-c2ccc(OCC)cc2)cc1`, the GI50 is 8.41 µM (inactive) with DMS-273; 9.73 µM (inactive) in the experiment with SNB-78; 3.21 µM (inactive) with DMS-114; 4.98 µM (inactive) with DLD-1; 11.2 µM (inactive) in the experiment with KM-20L2.

Consider `COc1ccc(C(=O)N2CCN(c3ccc4c(c3)OCC(=O)N4)CC2)cc1OC`, for which the GI50 in the experiment on BT-549 was > 100 µM (inactive).

On to `O=[N+]([O-])c1cccc2c(/N=N/c3ccc4ccccc4c3O)c(O)cc(S(=O)(=O)O)c12`, for which the GI50 in the experiment on BT-549 is 74.6 µM (inactive).

Take `COc1ccc(OC)c2c(Nc3ccc(S(=O)(=O)O)c4cc(S(=O)(=O)O)cc(S(=O)(=O)O)c34)cc(C)nc12`: in the experiment with BT-549, the GI50 was > 100 µM (inactive).

Take `O=S(=O)(O)c1ccc(O)c(/N=N/c2c(O)ccc3ccccc23)c1`: the GI50 in the experiment with BT-549 was > 100 µM (inactive).

As to `C=C(C)C(=O)OC1C[C@H](COC(C)=O)C2CC=C(CO)C2C2OC(=O)C(=C)[C@H]12` (stereo not given in full), the GI50 with BT-549 is 61.1 µM (inactive).

In the case of `C[C@@]1(Cc2ccccc2)C(=O)N2[C@@H](CO)C(c3ccccc3)O[C@]2(C)c2ccccc21` (stereo not given in full), the GI50 in the experiment with DMS-273, in the experiment with SNB-78, with DMS-114, with DLD-1 and in the experiment with KM-20L2 was > 100 µM (inactive) throughout.

Consider `CCCCCCCCCCCC[C@@H](O)[C@H]1CC[C@H]([C@H](O)CC[C@H](O)[C@@H]2CC[C@@H](CCCCCCCC3=C[C@H](C)OC3=O)O2)O1`, for which the GI50 with BT-549 is > 50 µM (inactive).

On to `O=C(O)CC(Cc1ccccc1Cl)C(=O)O` (stereo not given), for which the GI50 with BT-549 was > 100 µM (inactive).

Turning to `COc1cc(-c2oc3c(OC)cc(OC)c(O)c3c(=O)c2OC)cc(OC)c1OC`, the GI50 in the experiment with BT-549 was 5.32 µM (inactive).

In the case of `CC(C)(C)OC(=O)CC(NC(=O)OC(C)(C)C)C(=O)NC(CCCCNC(=O)OCc1ccccc1)C(=O)NC(C)(C)C(=O)NCCC(=O)OCc1ccccc1` (stereo not given) (Boc-D(OtBu)K(Cbz)[Aib][βAla]-OBn; configuration not given here), in the experiment with BT-549, the GI50 was > 100 µM (inactive).

With `O=C1c2ccccc2C(=O)c2c1ccc(O)c2O` [ATHRAQUINONES A], the GI50 in the experiment on DMS-273 was 35.9 µM (inactive); in the experiment with DLD-1 it was 43.4 µM (inactive); in the experiment with XF498, 39.1 µM (inactive).
